Experimental data reported in ChEMBL document CHEMBL5537115, “New broad-spectrum and potent antibacterial agents with dual-targeting mechanism: Promoting FtsZ polymerization and disrupting bacterial membranes” (Eur J Med Chem, 2024).
In brackets after ≈: the same amount, converted by molar mass. Activity calls are given as the source filed them. The calls are words filed in the database; no cut-off is given here.

Columns and labels:
Staphylococcus aureus [1] = test: Selectivity ratio of MBC for methicillin-resistant Staphylococcus aureus ATCC43300 to MIC for methicillin-resistant Staphylococcus aureus ATCC43300; type: functional
Streptococcus pyogenes [2] = test: Antibacterial activity against erythromycin-resistant Streptococcus pyogenes 2 clinical isolate assessed as bacterial growth inhibition incubated for 20 hrs by CLSI based broth microdilution method; type: functional
Enterococcus faecalis [3] = test: Antibacterial activity against vancomycin-resistant Enterococcus faecalis ATCC51299 assessed as bacterial growth inhibition incubated for 20 hrs by CLSI based broth microdilution method; type: functional
Acinetobacter baumannii [4] = test: Selectivity ratio of MBC for Acinetobacter baumannii ATCC19606 to MIC for Acinetobacter baumannii ATCC19606; type: functional
[5] = system: Staphylococcus epidermidis; test: Antibacterial activity against penicillin-resistant Staphylococcus epidermidis clinical isolate assessed as bacterial growth inhibition incubated for 20 hrs by CLSI based broth microdilution method; type: functional
Acinetobacter baumannii [6] = test: Antibacterial activity against Acinetobacter baumannii ATCC19606 incubated for 18 to 24 hrs; type: functional; details: time 18-24 hrs
Escherichia coli [7] = test: Antibacterial activity against penicillin-susceptible Escherichia coli ATCC25922 assessed as bacterial growth inhibition incubated for 20 hrs by CLSI based broth microdilution method; type: functional
Bacillus subtilis [8] = test: Antibacterial activity against penicillin-susceptible Bacillus subtilis ATCC9372 incubated for 18 to 24 hrs; type: functional; details: time 18-24 hrs
Enterococcus faecium [9] = test: Antibacterial activity against vancomycin-susceptible Enterococcus faecium ATCC19434 assessed as bacterial growth inhibition incubated for 20 hrs by CLSI based broth microdilution method; type: functional
Bacillus pumilus = test: Antibacterial activity against penicillin-susceptible Bacillus pumilus CMCC63202 assessed as bacterial growth inhibition incubated for 20 hrs by CLSI based broth microdilution method; type: functional
Streptococcus pyogenes [10] = test: Antibacterial activity against erythromycin-susceptible Streptococcus pyogenes 1 assessed as bacterial growth inhibition incubated for 20 hrs by CLSI based broth microdilution method; type: functional
Staphylococcus aureus [11] = test: Antibacterial activity against erythromycin-susceptible Staphylococcus aureus ATCC25923 incubated for 18 to 24 hrs; type: functional; details: time 18-24 hrs
Escherichia coli [12] = test: Antibacterial activity against wild-type Escherichia coli BW25113 assessed as bacterial growth inhibition incubated for 20 hrs by CLSI based broth microdilution method; type: functional
Bacillus subtilis [13] = test: Selectivity ratio of MBC for penicillin-susceptible Bacillus subtilis ATCC9372 to MIC for penicillin-susceptible Bacillus subtilis ATCC9372; type: functional
Staphylococcus aureus [14] = test: Antibacterial activity against Staphylococcus aureus clinical isolate incubated for 18 to 24 hrs; type: functional; details: time 18-24 hrs
Klebsiella pneumoniae = test: Antibacterial activity against Klebsiella pneumoniae ATCC BAA-1902 assessed as bacterial growth inhibition incubated for 20 hrs by CLSI based broth microdilution method; type: functional
Acinetobacter baumannii [15] = test: Antibacterial activity against Acinetobacter baumannii ATCC19606 assessed as bacterial growth inhibition incubated for 20 hrs by CLSI based broth microdilution method; type: functional
Staphylococcus aureus [16] = test: Selectivity ratio of MBC for erythromycin-susceptible Staphylococcus aureus ATCC25923 to MIC for erythromycin-susceptible Staphylococcus aureus ATCC25923; type: functional
Bacillus subtilis [17] = test: Antibacterial activity against penicillin-susceptible Bacillus subtilis ATCC9372 assessed as bacterial growth inhibition incubated for 20 hrs by CLSI based broth microdilution method; type: functional
Staphylococcus aureus [18] = test: Antibacterial activity against Staphylococcus aureus clinical isolate assessed as bacterial growth inhibition incubated for 20 hrs by CLSI based broth microdilution method; type: functional
Staphylococcus aureus [19] = test: Antibacterial activity against methicillin-resistant Staphylococcus aureus ATCC43300 assessed as bacterial growth inhibition incubated for 20 hrs by CLSI based broth microdilution method; type: functional
Enterococcus faecalis [20] = test: Antibacterial activity against vancomycin-susceptible Enterococcus faecalis ATCC29212 assessed as bacterial growth inhibition incubated for 20 hrs by CLSI based broth microdilution method; type: functional
Staphylococcus aureus [21] = test: Antibacterial activity against methicillin-resistant Staphylococcus aureus ATCC43300 incubated for 18 to 20 hrs; type: functional; details: time 18-20 hrs
Staphylococcus aureus [22] = test: Selectivity ratio of MBC for Staphylococcus aureus clinical isolate to MIC for Staphylococcus aureus clinical isolate; type: functional
Staphylococcus aureus [23] = test: Antibacterial activity against penicillin-resistant Staphylococcus aureus ATCC31007 assessed as bacterial growth inhibition incubated for 20 hrs by CLSI based broth microdilution method; type: functional
Enterococcus faecium [24] = test: Antibacterial activity against vancomycin-resistant Enterococcus faecium ATCC51559 assessed as bacterial growth inhibition incubated for 20 hrs by CLSI based broth microdilution method; type: functional
Staphylococcus aureus [25] = test: Antibacterial activity against erythromycin-susceptible Staphylococcus aureus ATCC25923 assessed as bacterial growth inhibition incubated for 20 hrs by CLSI based broth microdilution method; type: functional
Staphylococcus aureus [26] = test: Effect on proton gradient of cytoplasmic membrane in Staphylococcus aureus ATCC25923 at 1 ug/ml measured after 20 mins by diSC35 dye based analysis; type: functional, organism-based; details: Cytoplasm membrane, dose 1.0 µg/ml
Staphylococcus aureus [27] = test: Induction of resistance development in Staphylococcus aureus ATCC25923 assessed as fold increase in MIC at 0.5 times MIC measured after 32 days by multi-passage resistance assay relative to control; type: functional; details: time 32.0 day
Staphylococcus aureus [28] = test: Disruption of inner membrane in Staphylococcus aureus ATCC25923 at 0.5 ug/ml measured after 12 mins by PI staining based analysis; type: functional, organism-based; details: dose 0.5 µg/ml
Escherichia coli [29] = test: Disruption of outer membrane in Escherichia coli ATCC25922 at 16 ug/ml measured after 10 mins by NPN dye based analysis; type: functional, organism-based; details: dose 16.0 µg/ml

SMILES	MIC (Streptococcus pyogenes [2]) [µg/mL]	MIC (Enterococcus faecalis [3]) [µg/mL]	MIC [5] [µg/mL]	MBC (Acinetobacter baumannii [6]) [µg/mL]	MIC (Escherichia coli [7]) [µg/mL]	MBC (Bacillus subtilis [8]) [µg/mL]	MIC (Enterococcus faecium [9]) [µg/mL]	MIC (Bacillus pumilus) [µg/mL]	MIC (Streptococcus pyogenes [10]) [µg/mL]	MBC (Staphylococcus aureus [11]) [µg/mL]	MIC (Escherichia coli [12]) [µg/mL]	MIC (Klebsiella pneumoniae) [µg/mL]	MIC (Acinetobacter baumannii [15]) [µg/mL]	MIC (Bacillus subtilis [17]) [µg/mL]	MIC (Staphylococcus aureus [18]) [µg/mL]	MIC (Staphylococcus aureus [19]) [µg/mL]	MIC (Enterococcus faecalis [20]) [µg/mL]	MIC (Staphylococcus aureus [23]) [µg/mL]	MIC (Enterococcus faecium [24]) [µg/mL]	MIC (Staphylococcus aureus [25]) [µg/mL]	also measured
Cc1ccccc1-c1c[n+](C)c(-c2ccc(C(C)(C)C)cc2)cc1/C=C/c1ccc(N(C)C)cc1.[I-]	2	2	1	2	4	2	1	0.5	2	0.25	2	16	1	0.5	0.25	0.5	2	1	0.5	0.125	Ratio (Staphylococcus aureus [1]): 1; Ratio (Acinetobacter baumannii [4]): 2; Ratio (Bacillus subtilis [13]): 4; MBC (Staphylococcus aureus [14]): 1 µg/mL; Ratio (Staphylococcus aureus [16]): 2; MBC (Staphylococcus aureus [21]): 0.5 µg/mL; Ratio (Staphylococcus aureus [22]): 4
Cc1cc(-c2ccccc2)[n+](C)cc1-c1ccccc1	–	–	–	–	–	–	–	–	–	–	–	–	–	–	–	–	–	–	–	–	Activity (Staphylococcus aureus [26]): inactive
C[n+]1cc2c3c(ccc2c2ccc4cc5c(cc4c21)OCO5)OCO3	2	32	8	> 64	32	64	64	4	2	> 64	64	64	64	4	8	8	16	16	32	4	Ratio (Bacillus subtilis [13]): 16; MBC (Staphylococcus aureus [14]): > 64 µg/mL; Ratio (Staphylococcus aureus [16]): >32; MBC (Staphylococcus aureus [21]): > 64 µg/mL
CN(C)c1ccc(/C=C/c2cc(-c3ccc(C(C)(C)C)cc3)[n+](C)cc2-c2ccccc2)cc1.[I-]	2	2	1	4	4	2	2	0.25	2	1	8	8	1	0.125	0.125	0.25	2	0.5	2	0.125	Ratio (Acinetobacter baumannii [4]): 4; Ratio (Bacillus subtilis [13]): 16; MBC (Staphylococcus aureus [14]): 1 µg/mL; Ratio (Staphylococcus aureus [16]): 8; MBC (Staphylococcus aureus [21]): 1 µg/mL; Ratio (Staphylococcus aureus [22]): 4
CO[C@H]1/C=C/O[C@@]2(C)Oc3c(C)c(O)c4c(O)c(c(/C=N/N5CCN(C)CC5)c(O)c4c3C2=O)NC(=O)/C(C)=C\C=C\[C@H](C)[C@H](O)[C@@H](C)[C@@H](O)[C@@H](C)[C@H](OC(C)=O)[C@@H]1C	–	–	–	–	–	–	–	–	–	–	–	–	–	–	–	–	–	–	–	–	fold change (FC) (Staphylococcus aureus [27]): 8192
C[n+]1cc(-c2ccccc2)c(/C=C/c2ccccc2)cc1-c1ccc(C(C)(C)C)cc1	–	–	–	–	–	–	–	–	–	–	–	–	–	–	–	–	–	–	–	–	Activity (Staphylococcus aureus [28]): Active; Activity (Staphylococcus aureus [26]): inactive; Activity (Escherichia coli [29]): Active
C[n+]1ccc(/C=C/c2ccccc2)c(-c2ccccc2)c1	–	–	–	–	–	–	–	–	–	–	–	–	–	–	–	–	–	–	–	–	Activity (Staphylococcus aureus [26]): inactive
C[n+]1cc(-c2ccccc2)c(/C=C/c2ccc(C(C)(C)C)cc2)cc1-c1ccccc1.[I-]	2	4	2	–	8	–	4	2	2	–	8	32	4	0.5	0.5	0.5	4	4	2	0.25	Activity (Staphylococcus aureus [28]): Active; Activity (Staphylococcus aureus [26]): inactive; Activity (Escherichia coli [29]): Active
CC(=O)NC[C@H]1CN(c2ccc(N3CCOCC3)c(F)c2)C(=O)O1 [LINEZOLID]	1 (≈ 2.96 µM)	–	4 (≈ 11.9 µM)	> 64	> 64	64 (≈ 190 µM)	8 (≈ 23.7 µM)	2 (≈ 5.93 µM)	1 (≈ 2.96 µM)	> 64	> 64	> 64	> 64	0.5 (≈ 1.48 µM)	–	–	–	–	4 (≈ 11.9 µM)	–	MBC (Staphylococcus aureus [14]): > 64 µg/mL; MBC (Staphylococcus aureus [21]): 8 µg/mL (≈ 23.7 µM)
CCCCCOc1ccc(/C=C/c2cc(-c3ccccc3)[n+](C)cc2-c2ccccc2)cc1.[I-]	2	1	1	–	4	–	0.5	0.5	2	–	2	4	2	0.5	0.5	1	2	1	1	0.5	–
